Assay results as given in patent US20260201008A1, “SECRETIN-DERIVED GLP1R SELECTIVE AGONISTS” (GUBRA A/S, priority 2023, published 2026).
Like-named read-outs stand apart in the source and are kept apart here. Numbered stars: 1 amine (or outer) side, 2 acyl side, 3 side chain; on linkers, the order of the positions; unused ones are H or OH. Square brackets hold non-standard residues; d marks the D form. Side chains are listed from the residue outwards. Peptide text beside a SMILES is read from it. * marks the point of attachment. C20 diacid = O=C(O)CCCCCCCCCCCCCCCCCCC(=O)*; γGlu = O=C(O)[C@H](CCC(=O)[*:2])N[*:1]; AEEA = NCCOCCOCC(=O)O; Aib = CC(C)(N)C(=O)O

Experiments:
SCTR = SCTR (Homo sapiens, UniProt P47872); test: hSCTR potency, cAMP accumulation in CHO-K1 cells stably overexpressing hSCTR; assay type: cell-based; set-up: alternatively Euroscreen ES-712-AF; FAST-0161L; host or cells: CHO-K1; settings: cAMP accumulation
Outline: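 Thawed CHO-K1 cells carrying stable hSCTR are plated into casein/IBMX buffer (0.05%, 0.5 mM), dosed immediately for 30 min at room temperature, then cAMP is detected by TR-FRET. Purified peptides run as 11 three-fold dilutions in duplicate, and curves are fitted with variable slope.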

GLP1R = GLP1R (Homo sapiens, UniProt P43220); test: hGLP1R potency, cAMP accumulation in CHO-K1 cells stably overexpressing hGLP1R; assay type: cell-based; set-up: host or cells: CHO-K1; settings: for Selectivity: SCTR EC50/GLP1R EC50 ratio; for EC50: cAMP accumulation; for SCTR EC50/GLP1R EC50 ratio: cAMP accumulation in CHO-K1 cells
Outline: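 2000 cells/well, DPBS + 0.05% casein + 0.5 mM IBMX; 30 min RT stimulation; HTRF cAMP detection after 1 h. Purified: 3-fold ×11, n=2; crude: 10-fold ×5, n=1. EC50 by variable-slope fit.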

[1] = Turbidity of crude library peptides (absorbance at 600 nm); assay type: physicochemical; settings: Physical stability of peptides
Outline: (§1)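 Turbidity is the absorbance at 600 nm, taken before heating. Fibril signal is the mean ThT emission at 480 nm (450 nm excitation), read every 10 min over 72 h at 40° C with 700 rpm shaking between reads. Peptides at 267 μM, pH 4.0 acetate or pH 7.0 phosphate buffer (50 mM), 4 μM ThT final.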

[2] = Fibril formation of crude library peptides (Thioflavin T); assay type: physicochemical; set-up: key: average ThT fluorescence emission at 480 nm (ex 450 nm), raw units; settings: Physical stability of peptides
Outline: as §1

[3] = CHO-K1 cells overexpressing hSCTR, read-out: pEC50 hSCTR (converted)
[4] = CHO-K1 cells overexpressing hGLP1R, read-out: pEC50 hGLPR1 (converted)
[5] = CHO-K1 cells overexpressing hSCTR, read-out: hSCTR pEC50 (converted)
[6] = CHO-K1 cells overexpressing hGLP1R, read-out: hGLP1R pEC50 (converted)
[7] = selectivity for hGLP1R over hSCTR

Sequence of SCTR (P47872 23-440): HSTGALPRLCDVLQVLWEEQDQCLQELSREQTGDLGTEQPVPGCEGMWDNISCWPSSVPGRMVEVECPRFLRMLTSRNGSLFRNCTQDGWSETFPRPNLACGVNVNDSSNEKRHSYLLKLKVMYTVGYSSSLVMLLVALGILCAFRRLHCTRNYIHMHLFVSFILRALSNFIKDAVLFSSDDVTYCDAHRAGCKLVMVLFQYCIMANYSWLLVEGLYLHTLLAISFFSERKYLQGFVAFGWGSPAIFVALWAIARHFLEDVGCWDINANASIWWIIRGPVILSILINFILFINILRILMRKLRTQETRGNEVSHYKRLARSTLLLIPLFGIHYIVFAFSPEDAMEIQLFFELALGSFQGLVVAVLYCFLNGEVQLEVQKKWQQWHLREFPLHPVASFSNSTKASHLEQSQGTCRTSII
Sequence of GLP1R (P43220 24-463): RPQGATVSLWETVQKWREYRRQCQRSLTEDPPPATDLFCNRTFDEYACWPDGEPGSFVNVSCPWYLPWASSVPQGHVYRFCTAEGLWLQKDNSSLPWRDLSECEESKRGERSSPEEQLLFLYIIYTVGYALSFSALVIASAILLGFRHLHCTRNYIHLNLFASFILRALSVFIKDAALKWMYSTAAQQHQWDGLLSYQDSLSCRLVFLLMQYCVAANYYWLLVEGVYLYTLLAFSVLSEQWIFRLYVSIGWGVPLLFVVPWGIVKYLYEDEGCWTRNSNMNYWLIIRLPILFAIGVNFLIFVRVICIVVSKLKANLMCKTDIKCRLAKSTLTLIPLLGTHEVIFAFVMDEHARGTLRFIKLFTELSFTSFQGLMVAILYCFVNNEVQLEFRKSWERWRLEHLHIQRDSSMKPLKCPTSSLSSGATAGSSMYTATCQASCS

| Structure (SMILES) | EC50 (SCTR; [3]) [nM] | Selectivity (GLP1R) | EC50 (GLP1R; [4]) [nM] | Turbidity (pH 7) [1] | Fibril formation [2] | EC50 (SCTR; [5]) [nM] | EC50 (GLP1R; [6]) [nM] | SCTR EC50/GLP1R EC50 ratio (GLP1R; [7]) | EC50 (SCTR; CHO-K1 cells stably overexpressing hSCTR, read-out: hSCTR potency (pEC50) (converted)) [nM] | EC50 (GLP1R; CHO-K1 cells stably overexpressing hGLP1R, read-out: hGLP1R potency (pEC50) (converted)) [nM] | SCTR EC50/GLP1R EC50 ratio (GLP1R; selectivity ratio, hSCTR vs hGLP1R) |
| --- | --- | --- | --- | --- | --- | --- | --- | --- | --- | --- | --- |
| CC(C)C[C@H](NC(=O)[C@H](Cc1ccccc1)NC(=O)[C@H](CCCNC(=N)N)NC(=O)[C@H](CCC(N)=O)NC(=O)[C@H](CO)NC(=O)[C@H](C)NC(=O)[C@H](C)NC(=O)[C@H](Cc1ccccc1)NC(=O)[C@H](CCC(=O)O)NC(=O)[C@H](CCCCNC(=O)COCCOCCNC(=O)COCCOCCNC(=O)CC[C@H](NC(=O)CCCCCCCCCCCCCCCCCCC(=O)O)C(=O)O)NC(=O)[C@H](CC(C)C)NC(=O)[C@H](CCC(=O)O)NC(=O)[C@H](CO)NC(=O)[C@@H](NC(=O)[C@H](CC(=O)O)NC(=O)[C@H](CO)NC(=O)[C@@H](NC(=O)[C@H](Cc1ccccc1)NC(=O)[C@@H](NC(=O)CNC(=O)[C@H](CCC(=O)O)NC(=O)C(C)(C)NC(=O)[C@@H](N)Cc1c[nH]cn1)[C@@H](C)O)[C@@H](C)O)C(C)C)C(=O)N[C@@H](CCC(=O)O)C(=O)N[C@@H](Cc1c[nH]cn1)C(=O)N[C@@H](CC(C)C)C(=O)N[C@H](C(N)=O)C(C)C [compound 8] (H-H[Aib]EGTFTSDVSELK([AEEA-AEEA-γGlu-C20 diacid])EFAASQRFLEHLV-NH2) | 1580 | 30095 | 0.0501 | 0.09 | 259534 | – | – | – | – | – | – |
| CC(C)C[C@H](NC(=O)[C@H](Cc1ccccc1)NC(=O)[C@H](CCCNC(=N)N)NC(=O)[C@H](CCC(N)=O)NC(=O)CNC(=O)C(C)(C)NC(=O)[C@H](C)NC(=O)[C@H](CCC(=O)O)NC(=O)[C@H](CCC(=O)O)NC(=O)[C@H](CCCCNC(=O)COCCOCCNC(=O)COCCOCCNC(=O)CC[C@H](NC(=O)CCCCCCCCCCCCCCCCCCC(=O)O)C(=O)O)NC(=O)[C@H](CC(C)C)NC(=O)[C@H](Cc1ccc(O)cc1)NC(=O)[C@H](CO)NC(=O)[C@@H](NC(=O)[C@H](CC(=O)O)NC(=O)[C@H](CO)NC(=O)[C@@H](NC(=O)[C@H](Cc1ccccc1)NC(=O)[C@@H](NC(=O)CNC(=O)[C@H](CCC(=O)O)NC(=O)C(C)(C)NC(=O)[C@@H](N)Cc1c[nH]cn1)[C@@H](C)O)[C@@H](C)O)C(C)C)C(=O)N[C@@H](CCC(=O)O)C(=O)N[C@@H](Cc1c[nH]cn1)C(=O)N[C@@H](CC(C)C)C(=O)N[C@H](C(N)=O)C(C)C [compound 154] (H-H[Aib]EGTFTSDVSYLK([AEEA-AEEA-γGlu-C20 diacid])EEA[Aib]GQRFLEHLV-NH2) | – | – | – | 0.08 | 3107 | 3980 | 0.0158 | 203892 | – | – | – |
| CC(C)C[C@H](NC(=O)[C@H](Cc1ccccc1)NC(=O)[C@H](CCCNC(=N)N)NC(=O)[C@H](CCC(N)=O)NC(=O)[C@H](CO)NC(=O)[C@H](C)NC(=O)[C@H](C)NC(=O)[C@H](CCC(=O)O)NC(=O)[C@H](CCC(=O)O)NC(=O)[C@H](CCCCNC(=O)COCCOCCNC(=O)COCCOCCNC(=O)CC[C@H](NC(=O)CCCCCCCCCCCCCCCCCCC(=O)O)C(=O)O)NC(=O)[C@H](CC(C)C)NC(=O)[C@H](Cc1ccc(O)cc1)NC(=O)[C@H](CO)NC(=O)[C@@H](NC(=O)[C@H](CC(=O)O)NC(=O)[C@H](CO)NC(=O)[C@@H](NC(=O)[C@H](Cc1ccccc1)NC(=O)[C@@H](NC(=O)CNC(=O)[C@H](CCC(=O)O)NC(=O)C(C)(C)NC(=O)[C@@H](N)Cc1c[nH]cn1)[C@@H](C)O)[C@@H](C)O)C(C)C)C(=O)N[C@@H](CCC(=O)O)C(=O)N[C@@H](Cc1c[nH]cn1)C(=O)N[C@@H](CC(C)C)C(=O)N[C@H](C(N)=O)C(C)C [compound 75] (H-H[Aib]EGTFTSDVSYLK([AEEA-AEEA-γGlu-C20 diacid])EEAASQRFLEHLV-NH2) | 3160 | 133506 | 0.0251 | 0.08 | 9457 | – | – | – | – | – | – |
| CC[C@H](C)[C@H](NC(=O)[C@H](Cc1ccccc1)NC(=O)[C@H](CCCNC(=N)N)NC(=O)[C@H](CCC(N)=O)NC(=O)[C@H](CC(C)C)NC(=O)[C@H](C)NC(=O)[C@H](C)NC(=O)CNC(=O)[C@H](CCC(=O)O)NC(=O)[C@H](CC(C)C)NC(=O)[C@H](CC(C)C)NC(=O)CNC(=O)[C@H](CO)NC(=O)[C@H](Cc1ccc(O)cc1)NC(=O)[C@H](CC(=O)O)NC(=O)[C@H](CO)NC(=O)[C@@H](NC(=O)[C@H](Cc1ccccc1)NC(=O)[C@@H](NC(=O)CNC(=O)[C@H](CCC(=O)O)NC(=O)C(C)(C)NC(=O)[C@@H](N)Cc1c[nH]cn1)[C@@H](C)O)[C@@H](C)O)C(=O)N[C@@H](CCC(N)=O)C(=O)N[C@@H](Cc1c[nH]c2ccccc12)C(=O)N[C@@H](CC(C)C)C(=O)N[C@H](C(N)=O)C(C)C [compound 195] (H-H[Aib]EGTFTSDYSGLLEGAALQRFIQWLV-NH2) | – | – | – | 0.25 | 144234 | – | – | – | 10 | 0.0251 | 419 |
| CC(C)C[C@H](NC(=O)[C@H](Cc1ccccc1)NC(=O)[C@H](CCCNC(=N)N)NC(=O)[C@H](CCC(N)=O)NC(=O)C(C)(C)NC(=O)[C@H](C)NC(=O)[C@H](C)NC(=O)[C@H](CCC(=O)O)NC(=O)[C@H](CCC(=O)O)NC(=O)[C@H](CCCCNC(=O)COCCOCCNC(=O)COCCOCCNC(=O)CC[C@H](NC(=O)CCCCCCCCCCCCCCCCCCC(=O)O)C(=O)O)NC(=O)[C@H](CC(C)C)NC(=O)[C@@H](NC(=O)[C@H](CO)NC(=O)[C@@H](NC(=O)[C@H](CC(=O)O)NC(=O)[C@H](CO)NC(=O)[C@@H](NC(=O)[C@H](Cc1ccccc1)NC(=O)[C@@H](NC(=O)CNC(=O)[C@H](CCC(=O)O)NC(=O)C(C)(C)NC(=O)[C@@H](N)Cc1c[nH]cn1)[C@@H](C)O)[C@@H](C)O)C(C)C)[C@@H](C)O)C(=O)N[C@@H](CCC(=O)O)C(=O)N[C@@H](Cc1c[nH]cn1)C(=O)N[C@@H](CC(C)C)C(=O)N[C@H](C(N)=O)C(C)C [compound 77] (H-H[Aib]EGTFTSDVSTLK([AEEA-AEEA-γGlu-C20 diacid])EEAA[Aib]QRFLEHLV-NH2) | 1580 | 74783 | 0.02 | 0.08 | 11936 | – | – | – | – | – | – |
| CC(C)C[C@H](NC(=O)[C@H](CCC(=O)O)NC(=O)[C@H](CCCCNC(=O)COCCOCCNC(=O)COCCOCCNC(=O)CC[C@H](NC(=O)CCCCCCCCCCCCCCCCCCC(=O)O)C(=O)O)NC(=O)[C@H](CC(C)C)NC(=O)[C@@H](NC(=O)[C@H](CO)NC(=O)[C@@H](NC(=O)[C@H](CC(=O)O)NC(=O)[C@H](CO)NC(=O)[C@@H](NC(=O)[C@H](Cc1ccccc1)NC(=O)[C@@H](NC(=O)CNC(=O)[C@H](CCC(=O)O)NC(=O)C(C)(C)NC(=O)[C@@H](N)Cc1c[nH]cn1)[C@@H](C)O)[C@@H](C)O)C(C)C)[C@@H](C)O)C(=O)N[C@@H](C)C(=O)N[C@@H](C)C(=O)N[C@@H](CCC(=O)O)C(=O)N[C@@H](CCC(N)=O)C(=O)N[C@@H](CCCNC(=N)N)C(=O)N[C@@H](Cc1ccccc1)C(=O)N[C@@H](CC(C)C)C(=O)N[C@@H](CCC(=O)O)C(=O)N[C@@H](Cc1c[nH]cn1)C(=O)N[C@@H](CC(C)C)C(=O)N[C@H](C(N)=O)C(C)C [compound 78] (H-H[Aib]EGTFTSDVSTLK([AEEA-AEEA-γGlu-C20 diacid])ELAAEQRFLEHLV-NH2) | 3980 | 72127 | 0.0501 | 0.08 | 8551 | – | – | – | – | – | – |
| CC[C@H](C)[C@H](NC(=O)C(C)(C)NC(=O)[C@H](C)NC(=O)[C@H](CCC(=O)O)NC(=O)[C@H](CCC(=O)O)NC(=O)[C@H](CCCCNC(=O)COCCOCCNC(=O)COCCOCCNC(=O)CC[C@H](NC(=O)CCCCCCCCCCCCCCCCCCC(=O)O)C(=O)O)NC(=O)[C@H](CC(C)C)NC(=O)[C@H](Cc1ccc(O)cc1)NC(=O)[C@H](CO)NC(=O)[C@@H](NC(=O)[C@H](CC(=O)O)NC(=O)[C@H](CO)NC(=O)[C@@H](NC(=O)[C@H](Cc1ccccc1)NC(=O)[C@@H](NC(=O)CNC(=O)[C@H](CCC(=O)O)NC(=O)C(C)(C)NC(=O)[C@@H](N)Cc1c[nH]cn1)[C@@H](C)O)[C@@H](C)O)C(C)C)C(=O)N[C@@H](CCC(N)=O)C(=O)N[C@@H](CCCNC(=N)N)C(=O)N[C@@H](Cc1ccccc1)C(=O)N[C@@H](CC(C)C)C(=O)N[C@@H](CCC(=O)O)C(=O)N[C@@H](Cc1c[nH]cn1)C(=O)N[C@@H](CC(C)C)C(=O)N[C@H](C(N)=O)C(C)C [compound 139] (H-H[Aib]EGTFTSDVSYLK([AEEA-AEEA-γGlu-C20 diacid])EEA[Aib]IQRFLEHLV-NH2) | – | – | – | 0.09 | 4010 | 126 | 0.00631 | 21979 | – | – | – |
